What is called Ki is a measure of affinity in units of concentration, obtained from inhibition or displacement.

From US20250197368A1 (priority 2020, published 2025) come the findings set out here.

Read-outs that look alike come from different tables or passages of the source.

In assay [1] the target is human α2β3γ2 GABAARs (benzodiazepine site) (Homo sapiens (Human), UniProt P18507+P47869). As to the kind of experiment: In vitro radioligand binding assay ([3H]Ro15-1788 displacement), α2-GABAAR Ki. Here is the method: The affinity (Ki) of compounds for the benzodiazepine site of human recombinant GABAARs was measured by their ability to inhibit the binding of the selective benzodiazepine antagonist [^3H]Ro15-1788 ([^3H] flumazenil).
Sequence of human α2β3γ2 GABAARs (benzodiazepine site) (P47869 29-451): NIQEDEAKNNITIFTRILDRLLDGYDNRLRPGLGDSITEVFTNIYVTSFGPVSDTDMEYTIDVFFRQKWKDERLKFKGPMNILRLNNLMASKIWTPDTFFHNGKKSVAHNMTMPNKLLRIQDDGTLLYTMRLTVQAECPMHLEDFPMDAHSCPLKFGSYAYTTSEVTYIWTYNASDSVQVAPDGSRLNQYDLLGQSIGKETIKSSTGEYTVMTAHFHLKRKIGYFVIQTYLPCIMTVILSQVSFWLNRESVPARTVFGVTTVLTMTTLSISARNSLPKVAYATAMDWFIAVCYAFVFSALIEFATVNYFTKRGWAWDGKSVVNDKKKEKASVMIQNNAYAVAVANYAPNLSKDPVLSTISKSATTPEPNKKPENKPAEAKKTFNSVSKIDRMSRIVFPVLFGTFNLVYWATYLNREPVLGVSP
Sequence of human α2β3γ2 GABAARs (benzodiazepine site) (P28472 26-473 partner): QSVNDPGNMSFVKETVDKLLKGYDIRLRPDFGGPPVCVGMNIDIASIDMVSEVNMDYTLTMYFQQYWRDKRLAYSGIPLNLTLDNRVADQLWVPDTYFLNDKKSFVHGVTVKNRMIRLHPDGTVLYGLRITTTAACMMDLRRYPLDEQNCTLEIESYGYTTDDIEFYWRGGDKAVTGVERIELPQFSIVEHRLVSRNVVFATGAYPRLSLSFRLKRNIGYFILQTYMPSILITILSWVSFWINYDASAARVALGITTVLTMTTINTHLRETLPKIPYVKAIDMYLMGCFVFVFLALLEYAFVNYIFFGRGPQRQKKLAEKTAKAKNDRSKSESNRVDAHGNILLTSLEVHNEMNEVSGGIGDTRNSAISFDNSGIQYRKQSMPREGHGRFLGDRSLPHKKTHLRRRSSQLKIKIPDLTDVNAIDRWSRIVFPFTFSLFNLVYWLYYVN
Sequence of human α2β3γ2 GABAARs (benzodiazepine site) (P18507 40-475): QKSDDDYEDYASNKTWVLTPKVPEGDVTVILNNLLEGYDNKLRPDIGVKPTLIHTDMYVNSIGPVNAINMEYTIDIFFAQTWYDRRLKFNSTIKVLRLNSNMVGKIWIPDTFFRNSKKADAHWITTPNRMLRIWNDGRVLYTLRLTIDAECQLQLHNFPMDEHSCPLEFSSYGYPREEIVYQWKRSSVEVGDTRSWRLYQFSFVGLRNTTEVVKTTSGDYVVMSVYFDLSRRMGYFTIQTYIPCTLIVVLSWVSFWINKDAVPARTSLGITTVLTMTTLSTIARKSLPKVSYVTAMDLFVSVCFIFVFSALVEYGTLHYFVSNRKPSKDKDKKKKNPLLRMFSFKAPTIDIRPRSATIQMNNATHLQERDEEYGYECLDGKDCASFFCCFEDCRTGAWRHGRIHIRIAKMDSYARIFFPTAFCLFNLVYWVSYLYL
Mouse L(tk^−) cells stably expressing human α1β3γ2, α2β3γ2, α3β3γ2, α5β3γ2 GABAARs were generated by transfection of the individual subunits in the dexamethasone-inducible expression vector pMSGneo in mouse L(tk^−) cells (Hadingham et al., 1993, Mol. Pharmacol. 43:970-975 and 1993, Mol. Pharmacol. 44:1211-1218).
L(tk^−) cells stably expressing human α1β3γ2, α2β3γ2, α3β3γ2, α5β3γ2 GABAARs were maintained in DMEM F12 medium supplemented with 10% Foetal Bovine Serum, 1% Penicillin/Streptomycin and 1 mg/mL Geneticin G418 in an incubator at 37° C. with a humidified atmosphere with 5% CO2. Dexamethasone was added to the culture medium to induce GABAAR expression.
L(tk−) cells were harvested and membranes were prepared for each receptor combination in either TE buffer (10 mM Tris·CI/0.1 mM EDTA, pH 7.5) or phosphate buffer (K2PO4 10 mM, pH 7.0) (Hadingham et al. (1992) Proc. Natl. Acad. Sci. USA; 89 (14): 6378-82). Protein concentration, receptor expression and the Kd of [^3H]Ro15-1788 were determined before Ki value of the compounds were evaluated. For Kd evaluation, saturation binding curves were obtained by incubating membrane with various concentrations of [^3H]Ro15-1788 (82.5 Ci/mM), with nonspecific binding measured in the presence of 1-3 μM TP003.
For Ki evaluation, cell membranes were incubated with 4 nM [^3H]Ro15-1788 along with a range of concentrations of test compound. Nonspecific binding was determined using 1-3 μM TP003. All incubations were performed for 1 hour at 4° C. in assay buffer. The total assay volume was 0.5 mL, containing 40 μg/well α1β3γ2, 30 μg/well α2β3γ2, 40 μg/well α3β3γ2 and 30 μg/well for α5β3γ2 of membrane protein. Incubations were terminated by filtration and washing with ice cold Tris-HCl buffer (50 mM, pH=7.4) over Whatman GF/B filters and the radioactivity of the filters was measured using liquid scintillation counting.
The % inhibition of [^3H]Ro15-1788 binding was plotted as a function of compound concentration and the IC50 calculated. From the IC50, the affinity (Ki) was calculated using the method of Cheng and Prusoff using the Kd values obtained for [^3H]Ro15-1788.

In assay [2] the test system is human α2β3γ2 GABAARs. As to the kind of experiment: In vitro electrophysiological recording assay (automated patch-clamp), α2-GABAAR relative efficacy. It counts as cell-based. The following applies: % efficacy normalised to diazepam; GABA EC10-20; concentration generally >= 100 times Ki. Here is the method: The efficacy of modulators was evaluated using the automated patch-clamp platforms QPatch16 (Sophion, Copenhagen, Denmark) or SyncroPatch 384PE (Nanion, Germany).
For QPatch electrophysiology testing L(tk^−) cells stably expressing human α1β3γ2, α2β3γ2, α3β3γ2, α5β3γ2 GABAARs were used. HEK293 cells stably expressing human α1β3γ2L, α2β3γ2L, α3β3γ2L and α5β3γ2L GABAARs were used for the SyncroPatch 384PE experiments.
All experiments were carried out at room temperature (20-22° C.) using a standard whole cell procedure and physiological solutions. Gigaseals were formed upon execution of a combined suction/voltage protocol with subsequent increased suction leading to the whole-cell configuration.
The currents recorded were acquired at either 1 KHz or 2 KHz and filtered using a Bessel filter. Whole-cell currents were measured at a holding potential of-65 mV (QPatch) or −80 mV (SyncroPatch).
For QPatch experiments, the extracellular solution contained of: 145 mM NaCl, 4 mM KCl, 1 mM MgCl2, 2 mM CaCl2), 10 mM HEPES, 10 mM D-glucose (pH 7.4), and the intracellular solution consisted of: 96 mM KCl, 28 mM CsCl, 25 mM KOH, 4.3 mM CaCl2), 1.4 mM MgCl2, 10 mM EGTA, 10 mM HEPES, 3 mM MgATP (pH 7.2). The osmolarities of the extracellular and intracellular solutions were 305 and 295 mOsm respectively.
For SyncroPatch experiments, the extracellular recording solution contained: 140 mM NaCl, 4 mM KCl, 2 mM CaCl2), 1 mM MgCl2, 10 mM HEPES, 5 mM glucose (pH 7.4 with NaOH and osmolarity of c. 300-310 mOsm). The intracellular recording solution consisted of: 90 mM KCl, 50 mM KF, 1.5 mM MgCl2, 11.1 mM EGTA and 10 mM HEPES (pH 7.2 with KOH and osmolarity of c. 300 mOsm). 2 mM of NaATP was added to the intracellular solution on the day of testing.
The effects of modulators were evaluated in the presence of a submaximal GABA concentration, giving typically less than 30% activation of the response elicited by a saturating GABA concentration. To check and ensure baseline current stability before compound addition, two to five consecutive applications of GABA EC10-20 separated by wash steps were performed before compound addition. The test compound was applied 1 min at least prior to co-application with GABA EC10-20. Following a further wash step, a saturating concentration of GABA was applied at the end of each recording, allowing the accurate evaluation for each cell of the percentage baseline activation elicited by the submaximal GABA applied.
The compounds were first dissolved in DMSO as a 10 mM stock and then further diluted to the testing concentrations so that the final DMSO concentration in the extracellular recording solution was 0.1% (QPatch) or 0.2% (SyncroPatch).
The % efficacy of modulators was determined from the GABA elicited currents recorded in the presence and absence of the test compound, using the formula:
[((compound peak current−leak)−(GABA peak current-leak))/(GABA peak current−leak)]*100,
where ‘leak’ is the leak baseline current at the holding potential, ‘compound peak current’ is the current elicited by co-application of compound and GABA, and ‘GABA peak current’ is the current elicited by GABA alone at the last GABA application before compound addition. The results were presented as ‘relative efficacy’ for each compound generally at a concentration equal or higher than 100 times their determined Ki. The relative efficacy of a compound was calculated by normalising its % efficacy to the corresponding % efficacy of diazepam that was separately determined.

Regarding `CCCNC(=O)c1c(N)c2cccc(-c3cn(C)nc3C)c2n(C)c1=O` [Example 80, 4-Amino-8-(1,3-dimethylpyrazol-4-yl)-1-methyl-2-oxo-N-propyl-quinoline-3-carboxamide], in assay [1], the Ki came to 4.44 nM. Further, the “α2-GABAAR Relative Efficacy (vs. Diazepam)” value (from here on “α2-GABAAR Relative Efficacy”) in assay [2] was 0.6.
For `CCCNC(=O)c1c(N)c2cccc(-c3cc(OCc4ccc(C(F)(F)F)cn4)ccc3F)c2[nH]c1=O` [Example 98, 4-Amino-8-[2-fluoro-5-[[5-(trifluoromethyl)-2-pyridyl]methoxy]phenyl]-2-oxo-N-propyl-1H-quinoline-3-carboxamide], the inhibition constant (Ki) in assay [1] was found to be 0.61 nM. In addition, the “α2-GABAAR Relative Efficacy” value in assay [2] is 0.29.
Turning to `CCCNC(=O)c1c(N)c2cccc(-c3cc(OCc4ccc(C#N)cc4OC)ccc3F)c2[nH]c1=O` [Example 115, 4-Amino-8-[5-[(4-cyano-2-methoxy-phenyl)methoxy]-2-fluoro-phenyl]-2-oxo-N-propyl-1H-quinoline-3-carboxamide], in assay [1], the Ki came to 2.01 nM. Moreover, in assay [2], the “α2-GABAAR Relative Efficacy” value is given as 0.34.
With `CCCNC(=O)c1c(N)c2cccc(-c3cc(OCc4cccnc4)ccc3F)c2[nH]c1=O` [Example 108, 4-Amino-8-[2-fluoro-5-(3-pyridylmethoxy)phenyl]-2-oxo-N-propyl-1H-quinoline-3-carboxamide], the Ki in assay [1] worked out at 0.39 nM. For the same molecule, the “α2-GABAAR Relative Efficacy” value in assay [2] is 0.32.
On to `CCCNC(=O)c1c(N)c2cccc(-c3cc(OCc4ccnnc4)ccc3F)c2[nH]c1=O` [Example 106, 4-Amino-8-[2-fluoro-5-(pyridazin-4-ylmethoxy)phenyl]-2-oxo-N-propyl-1H-quinoline-3-carboxamide], for which the Ki in assay [1] is 0.41 nM. Besides, the “α2-GABAAR Relative Efficacy” value in assay [2] is listed as 0.22.
As to `CCCNC(=O)c1c(N)c2cccc(-c3cnccc3OC(C)C)c2[nH]c1=O` [Example 20, 4-Amino-8-(4-isopropoxypyridin-3-yl)-2-oxo-N-propyl-1,2-dihydroquinoline-3-carboxamide], the Ki in assay [1] (L(tk-) cell membranes, 4 nM [3H]Ro15-1788, read-out: α2-GABAAR Ki) was 245 nM. Also, the “α2-GABAAR Relative Efficacy” value in assay [2] was found to be 0.16.
In the case of `COc1ccncc1-c1cccc2c(N)c(C(=O)NCCCF)c(=O)[nH]c12` [Example 67, 4-Amino-N-(3-fluoropropyl)-8-(4-methoxy-3-pyridyl)-2-oxo-1H-quinoline-3-carboxamide], in assay [1], the Ki turned out to be 3.74 nM. Besides, in assay [2], the “α2-GABAAR Relative Efficacy” value is 0.54.
On to `CCCNC(=O)c1c(N)c2cccc(-c3nc(CO)ccc3C)c2[nH]c1=O` [Example 12, 4-Amino-8-(6-(hydroxymethyl)-3-methylpyridin-2-yl)-2-oxo-N-propyl-1,2-dihydroquinoline-3-carboxamide], for which the Ki in assay [1] amounted to 8.17 nM. Further, the “α2-GABAAR Relative Efficacy” value in assay [2] was found to be 0.38.
`CCCNC(=O)c1c(N)c2cccc(-c3cc(OCc4ccc(F)cc4C#N)ccc3F)c2[nH]c1=O` [Example 114, 4-Amino-8-[5-[(2-cyano-4-fluoro-phenyl)methoxy]-2-fluoro-phenyl]-2-oxo-N-propyl-1H-quinoline-3-carboxamide]: the Ki in assay [1] is 0.73 nM. For the same molecule, the “α2-GABAAR Relative Efficacy” value in assay [2] was 0.38.
Take `CCCNC(=O)c1c(N)c2cccc(-c3cc(OCc4cncnc4)ccc3F)c2[nH]c1=O` [Example 107, 4-Amino-8-[2-fluoro-5-(pyrimidin-5-ylmethoxy)phenyl]-2-oxo-N-propyl-1H-quinoline-3-carboxamide]: the Ki in assay [1] is 0.2 nM. Also, the “α2-GABAAR Relative Efficacy” value in assay [2] is on record as 0.17.
`CCCNC(=O)c1c(N)c2cccc(-c3cccc(C(F)F)n3)c2[nH]c1=O` [Example 3, 4-Amino-8-[6-(difluoromethyl)-2-pyridyl]-2-oxo-N-propyl-1H-quinoline-3-carboxamide]: in assay [1], the Ki was 1.99 nM. Also, the “α2-GABAAR Relative Efficacy” value in assay [2] worked out at 0.29.
Take `CCCNC(=O)c1c(N)c2cccc(-c3ccncc3)c2[nH]c1=O` [Example 31, 4-Amino-2-oxo-N-propyl-8-(pyridin-4-yl)-1,2-dihydroquinoline-3-carboxamide]: the Ki in assay [1] is 3.28 nM. For the same molecule, the “α2-GABAAR Relative Efficacy” value in assay [2] is 0.24.
